Data reported in patent US4096173A, “Chlorinated 1-aminoindane N-methyl transferase inhibitors” (Eli Lilly and Company, priority 1977, dated 1978).
Counter-ions that a name gives are not always drawn. Like-named read-outs stand apart in the source and are kept apart here.

Tests used:
catechol amine uptake = details: comparison stated in the literature; cited from earlier work
[1] = target: T1, NMT from rabbit adrenals (norephineprine N-methyl transferase, PNMT) (Oryctolagus cuniculus, UniProt G1TT82); test: In vitro inhibition of N-methyl transferase (NMT) from rabbit adrenals; type: biochemical
T1 construct: NMT from rabbit adrenals; from tissue; host or cells: rabbit adrenals
T1 sequence (G1TT82 1-286): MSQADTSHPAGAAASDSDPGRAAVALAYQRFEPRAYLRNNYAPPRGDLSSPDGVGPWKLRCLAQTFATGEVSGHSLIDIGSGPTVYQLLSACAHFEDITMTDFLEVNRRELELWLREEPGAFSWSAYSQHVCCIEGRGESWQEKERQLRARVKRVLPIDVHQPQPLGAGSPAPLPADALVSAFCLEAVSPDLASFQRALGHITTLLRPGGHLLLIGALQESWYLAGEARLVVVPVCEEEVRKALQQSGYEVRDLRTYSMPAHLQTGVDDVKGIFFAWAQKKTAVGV
From the text: The compounds of this invention, either in the form of the free base, or as a pharmaceutically-acceptable acid addition salt thereof, are enzyme inhibitors. In particular, as previously stated, they are inhibitors of norephineprine N-methyl transferase [PNMT or phenethanolamine N-methyl transferase--see Axelod, J. Bio, Chem., 237, 1657 (1962)]. Compounds which inhibit the conversion of norephineprine to […], are capable of lowering a high […]-norephineprine ratio in mammals, a physiological condition frequently associated with essential hypertension. The compounds of this invention are thus capable of ameliorating the […]-norephineprine imbalance in essential hypertension, an important aspect of the treatment of this disease state. The effectiveness of the compounds as N-methyl transferase inhibitors has been measured in vitro using NMT from rabbit adrenals. […] The negative reciprocal logarhithm (pI50) of this number was also calculated as a useful index. Table 1, which follows, summarizes the information thus obtained; i.e., the determination of enzyme inhibition activity for the compounds of this invention.

[2] = read-out: pI50 (negative reciprocal logarhithm of the 50 percent inhibitory concentration) (converted)
[3] = series of decreasing inhibitor concentrations from 1 × 10^-4 M, read-out: 50 Inhibitory Concentration (concentration at which 50 percent inhibition of NMT is obtained)

SMILES | inhibition of catechol amine uptake, compared with 1-aminoindane (catechol amine uptake) | IC50 [1, 2] | IC50 [1, 3]
NC1Cc2ccccc2C1 [2-aminoindane] | better inhibitor of catechol amine uptake than 1-aminoindane |  | 
NC1CCc2c1ccc(Cl)c2Cl (stereo not drawn) [4,5-dichloro-1-aminoindane] |  | 200 nM | 200 nM
NC1CCc2c(Cl)cccc21 (stereo not drawn) [4-Chloro-1-aminoindane hydrochloride, 4-chloro-1-aminoindane hydrochloride] |  | 759 nM | 757 nM
NC1CCc2cc(Cl)c(Cl)cc21 (stereo not drawn) [5,6-dichloro-1-aminoindane maleate] |  | 4680 nM | 2950 nM
NC1CCc2ccc(Cl)c(Cl)c21 (stereo not drawn) [6,7-dichloro-1-aminoindane] |  | 6030 nM | 5370 nM
